Laboratory results published in ChEMBL document CHEMBL1201862, “PubChem BioAssay data set” (2004).
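Where inhibition never reached the appropriate level, the endpoint shown equals the highest concentration tested. Otherwise, values were interpolated linearly from a five-concentration, 48-hour dose response in 96-well plates. Abbreviation: GI50, concentration required for 50% inhibition of growth.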 The source made the active and inactive calls. No stated cut-off is given here; in the data, active = GI50 up to about 1.1 µM and inactive = higher.

How the values were obtained:
Experiment in all cases: inhibition of tumour cell growth, NCI panel, 48 h
A549 = tested on: A549
ACHN = tested on: ACHN
BT-549 = tested on: BT-549
CAKI-1 = tested on: CAKI-1
CCRF-CEM = tested on: CCRF-CEM
EKVX = tested on: EKVX
HCC 2998 = tested on: HCC 2998
HCT-116 = tested on: HCT-116
HL-60 = tested on: HL-60
HOP-62 = tested on: HOP-62
IGROV-1 = tested on: IGROV-1
K562 = tested on: K562
KM12 = tested on: KM12
LOX IMVI = tested on: LOX IMVI
M14 = tested on: M14
RPMI-8226 = tested on: RPMI-8226
SK-OV-3 = tested on: SK-OV-3
SNB-75 = tested on: SNB-75
SR = tested on: SR
TK-10 = tested on: TK-10

Compound	GI50 (A549)	GI50 (ACHN)	GI50 (BT-549)	GI50 (CAKI-1)	GI50 (CCRF-CEM)	GI50 (EKVX)	GI50 (HCC 2998)	GI50 (HCT-116)	GI50 (HL-60)	GI50 (HOP-62)	GI50 (IGROV-1)	GI50 (K562)	GI50 (KM12)	GI50 (LOX IMVI)	GI50 (M14)	GI50 (RPMI-8226)	GI50 (SK-OV-3)	GI50 (SNB-75)	GI50 (SR)	GI50 (TK-10)
c1ccc2c3ccn4ccc5c6ccccc6[nH]c5c4c-3nc2c1	0.745 µM (active)	1.43 µM (inactive)	1.77 µM (inactive)	1.42 µM (inactive)	0.31 µM (active)	1.02 µM (active)	0.453 µM (active)	0.306 µM (active)	0.935 µM (active)	1.31 µM (inactive)	1.25 µM (inactive)	0.201 µM (active)	0.908 µM (active)	0.202 µM (active)	1.85 µM (inactive)	0.255 µM (active)	1.52 µM (inactive)	1.57 µM (inactive)	0.0594 µM (active)	2.62 µM (inactive)
COC1/C=C/C(C)C(C(C)C(OC)C(C)CCC(=O)C(C)C(C/C=C/N(C)C=O)OC)OC(=O)/C=C/C=C(\C)CC(OC)C(OC)C2=CC(=O)O[C@@H](C(C)C(OC)CC(OC)/C=C/C(C)C(O)C1)[C@H]2O (stereo not given in full)	0.15 µM (active)	0.0914 µM (active)	0.117 µM (active)	0.0508 µM (active)	0.039 µM (active)	0.154 µM (active)	0.0716 µM (active)	< 0.0222 µM (active)	0.0964 µM (active)	0.0705 µM (active)	0.119 µM (active)	0.0379 µM (active)	0.164 µM (active)	0.0145 µM (active)	0.14 µM (active)	0.0356 µM (active)	0.122 µM (active)	0.0268 µM (active)	0.0809 µM (active)	0.0745 µM (active)
COc1cc(C2c3cc4c(cc3OC(NNc3ccccc3)C2C)OCO4)cc(OC)c1O (stereo not given)	1.41 µM (inactive)	0.159 µM (active)	11.4 µM (inactive)	3.33 µM (inactive)	0.463 µM (active)	7.8 µM (inactive)	0.331 µM (active)	1.52 µM (inactive)	1.26 µM (inactive)	5.66 µM (inactive)	3.2 µM (inactive)	0.0893 µM (active)	0.251 µM (active)	0.049 µM (active)	0.255 µM (active)	0.995 µM (active)	3.79 µM (inactive)	2.33 µM (inactive)	0.207 µM (active)	4.63 µM (inactive)
CC(=O)NC1COC(COC(=O)CCCCCCCCCCNC(=O)c2ccc([N+](=O)[O-])c3c(=O)c4ccccc4[nH]c23)C(O)C1OC(C)C(=O)NC(C(=O)NC(CCC(N)=O)C(=O)OCc1ccccc1)C(C)C (stereo not given)	25 µM (inactive)	14.8 µM (inactive)	48.8 µM (inactive)	15.2 µM (inactive)	20.8 µM (inactive)	8.69 µM (inactive)	5.96 µM (inactive)	12.2 µM (inactive)	0.445 µM (active)	7.45 µM (inactive)	6.38 µM (inactive)	9.48 µM (inactive)	4.85 µM (inactive)	11.5 µM (inactive)	35 µM (inactive)	4.97 µM (inactive)	39.2 µM (inactive)	14.4 µM (inactive)	7.08 µM (inactive)	18.5 µM (inactive)
CC(C)=CCC[C@@H](C)C1=C(O)C(=O)C(C)=C(Nc2ccccc2F)C1=O	17.2 µM (inactive)	13.8 µM (inactive)	17.5 µM (inactive)	16.1 µM (inactive)	2.39 µM (inactive)	49.2 µM (inactive)	48.1 µM (inactive)	13.3 µM (inactive)	2.28 µM (inactive)	11.6 µM (inactive)	32.6 µM (inactive)	9.62 µM (inactive)	15.5 µM (inactive)	16.4 µM (inactive)	16.7 µM (inactive)	8.26 µM (inactive)	25.7 µM (inactive)	22.1 µM (inactive)	28.1 µM (inactive)	29.9 µM (inactive)
Cc1c2ccc3ccccc3c2c[n+]2ccccc12	3.72 µM (inactive)	56.5 µM (inactive)	2.96 µM (inactive)	53.6 µM (inactive)	6.59 µM (inactive)	4.91 µM (inactive)	4.92 µM (inactive)	17.1 µM (inactive)	33.4 µM (inactive)	7.93 µM (inactive)	43.5 µM (inactive)	10.7 µM (inactive)	1.13 µM (inactive)	42.9 µM (inactive)	15.8 µM (inactive)	19.5 µM (inactive)	16.9 µM (inactive)	6.41 µM (inactive)	2.96 µM (inactive)	35.7 µM (inactive)
C=C(C)C(=O)O[C@@H]1C/C(C)=C\[C@H](OC(C)=O)C[C@](C)(O)/C=C2/OC(=O)C(COC(C)=O)=C21	2.95 µM (inactive)	0.556 µM (active)	1.37 µM (inactive)	0.329 µM (active)	0.0649 µM (active)	0.962 µM (active)	0.399 µM (active)	0.394 µM (active)	0.013 µM (active)	5.66 µM (inactive)	0.834 µM (active)	0.122 µM (active)	6.32 µM (inactive)	0.152 µM (active)	0.673 µM (active)	0.314 µM (active)	6.12 µM (inactive)	3.93 µM (inactive)	0.0423 µM (active)	1.5 µM (inactive)
COC(=O)c1n[nH]c(C)c1/N=N/N(C)CCC#N	16.1 µM (inactive)	11.6 µM (inactive)	10.9 µM (inactive)	11.3 µM (inactive)	7.67 µM (inactive)	13.7 µM (inactive)	19.5 µM (inactive)	16.4 µM (inactive)	27.5 µM (inactive)	18.8 µM (inactive)	2.13 µM (inactive)	15.3 µM (inactive)	14.8 µM (inactive)	8.18 µM (inactive)	30.8 µM (inactive)	10.2 µM (inactive)	19.7 µM (inactive)	13.4 µM (inactive)	5.79 µM (inactive)	20.9 µM (inactive)
Cc1ccc([N+](=O)[O-])cc1S(=O)(=O)Nc1ccc(C2=NOC(c3ccco3)C2)cc1 (stereo not given)	21.9 µM (inactive)	21.3 µM (inactive)	18 µM (inactive)	22.8 µM (inactive)	18 µM (inactive)	24.2 µM (inactive)	17.2 µM (inactive)	16.4 µM (inactive)	21.3 µM (inactive)	12.6 µM (inactive)	24 µM (inactive)	4.7 µM (inactive)	11.8 µM (inactive)	17.3 µM (inactive)	15.3 µM (inactive)	18.9 µM (inactive)	28 µM (inactive)	18.7 µM (inactive)	3.33 µM (inactive)	31.2 µM (inactive)
O=C(N/C=C1\C(=O)Oc2ccccc2C1=O)Oc1ccccc1	32.5 µM (inactive)	20.9 µM (inactive)	18.7 µM (inactive)	21.6 µM (inactive)	25 µM (inactive)	27.7 µM (inactive)	24.8 µM (inactive)	21.4 µM (inactive)	29.9 µM (inactive)	17.6 µM (inactive)	20.7 µM (inactive)	55.3 µM (inactive)	35.6 µM (inactive)	25.1 µM (inactive)	19.2 µM (inactive)	91.4 µM (inactive)	6.27 µM (inactive)	14.3 µM (inactive)	18 µM (inactive)	22.9 µM (inactive)
COc1cc2cc(C(=O)Nc3cc4n(n3)-c3ccccc3C4)[nH]c2c(OC)c1OC	1.81 µM (inactive)	4.72 µM (inactive)	1.19 µM (inactive)	1.72 µM (inactive)	1.38 µM (inactive)	2.17 µM (inactive)	10.4 µM (inactive)	2.73 µM (inactive)	2.25 µM (inactive)	2 µM (inactive)	2.73 µM (inactive)	3.36 µM (inactive)	1.85 µM (inactive)	4.68 µM (inactive)	2 µM (inactive)	1.06 µM (active)	6.25 µM (inactive)	5.83 µM (inactive)	2.26 µM (inactive)	1.85 µM (inactive)
OCCCCCNc1c2ccccc2nc2ccccc12	2.65 µM (inactive)	0.818 µM (active)	6.17 µM (inactive)	2.91 µM (inactive)	2.5 µM (inactive)	3.4 µM (inactive)	1.01 µM (active)	1.45 µM (inactive)	3.44 µM (inactive)	1.38 µM (inactive)	3.03 µM (inactive)	2.37 µM (inactive)	3.13 µM (inactive)	1.89 µM (inactive)	2.74 µM (inactive)	3.44 µM (inactive)	3.05 µM (inactive)	5.52 µM (inactive)	1.37 µM (inactive)	3.6 µM (inactive)
C/C(=N\Nc1ncnc2ccccc12)c1ccccn1	0.0316 µM (active)	0.0169 µM (active)	0.587 µM (active)	< 0.01 µM (active)	< 0.01 µM (active)	< 0.0169 µM (active)	0.105 µM (active)	< 0.011 µM (active)	< 0.01 µM (active)	0.0355 µM (active)	< 0.0162 µM (active)	< 0.0106 µM (active)	0.0561 µM (active)	0.0194 µM (active)	0.02 µM (active)	0.019 µM (active)	0.0299 µM (active)	1.81 µM (inactive)	0.0317 µM (active)	0.157 µM (active)
Cc1c(C(=O)NNc2ccccc2)n2c(S)nnc2c2ccccc12	> 100 µM (inactive)	> 100 µM (inactive)	97.3 µM (inactive)	> 100 µM (inactive)	> 100 µM (inactive)	> 100 µM (inactive)	71.8 µM (inactive)	> 100 µM (inactive)	> 100 µM (inactive)	> 100 µM (inactive)	> 100 µM (inactive)	> 100 µM (inactive)	> 100 µM (inactive)	> 100 µM (inactive)	> 100 µM (inactive)	58.2 µM (inactive)	> 100 µM (inactive)	> 100 µM (inactive)	74.3 µM (inactive)	> 100 µM (inactive)
